Test results from publication PMC8072281 (Frontiers in Immunology, 2021).

Assays:
H-2K^b on RMA/S cells = type: cell-based, murine
[1] = test system: PPRV-peptide specific CD8+ T cells; design: species or system mouse (WT C57BL/6); conditions: mouse, in vivo
[2] = test system: peptide specific CD8+ T cells; design: species or system mouse (C57BL/6); conditions: mouse, in vivo
H-2K^b monomers = H-2K^b monomers (Mus musculus, UniProt P01901); type: binding
H-2K^b monomers, sequence (P01901 whole entry, looked up): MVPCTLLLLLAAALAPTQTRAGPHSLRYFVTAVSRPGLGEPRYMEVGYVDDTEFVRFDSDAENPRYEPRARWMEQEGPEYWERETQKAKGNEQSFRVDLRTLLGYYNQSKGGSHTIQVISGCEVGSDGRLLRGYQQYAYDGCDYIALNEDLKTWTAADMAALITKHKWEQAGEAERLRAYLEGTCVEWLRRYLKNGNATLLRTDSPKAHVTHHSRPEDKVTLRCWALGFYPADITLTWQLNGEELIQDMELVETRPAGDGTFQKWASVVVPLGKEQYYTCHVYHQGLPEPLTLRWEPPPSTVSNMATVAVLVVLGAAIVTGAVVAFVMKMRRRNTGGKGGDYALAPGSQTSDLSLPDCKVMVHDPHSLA

| Sequence | stabilization of surface H-2K^b (H-2K^b on RMA/S cells) | tetramer positive CD8+ T cells, frequencies and numbers vs control [1] | magnitude of tetramer positive CD8+ T cells [2] | fold change values of H-2K^b monomer stabilization vs control peptide SIINFEKL (H-2K^b monomers) |
| --- | --- | --- | --- | --- |
| FMYLFLLGV | greater levels than the other peptides | not significantly different from the control animals |  |  |
| FSAGAYPLL | greater levels than the other peptides | significantly higher frequencies and numbers | higher | higher values as compared to other peptides |
| IEHIFESPL |  |  |  | higher values as compared to other peptides |
| IGLVRDFGL | greater levels than the other peptides | significantly higher frequencies and numbers | higher | higher values as compared to other peptides |
| IVVRRTAGV |  |  |  | higher values as compared to other peptides |
| SSITTRSRL |  |  |  | higher values as compared to other peptides |
| VAFNILVTL |  |  |  | higher values as compared to other peptides |
| VILDRERLV |  |  |  | higher values as compared to other peptides |
